Experimental findings from ChEMBL document CHEMBL5325457, “Targeting m6A binding protein YTHDFs for cancer therapy” (Bioorg Med Chem, 2023) are described below.

Molecules are shown by their SMILES.

Test system in one assay: not listed separately
Nature of the assay: Inhibition of YTHDF (unknown origin). Set-up: species or system Homo sapiens.
For `CCN(CC)CCn1sc2ccccc2c1=O`, the EC50 was 1.69 µM.
With `O=c1c2ccccc2sn1CCN1CCOCC1`, the response was half-maximal at 2.83 µM (EC50). This EC50 is about 1.7-fold higher than that of the compound before.
The same measure, in the same setting: then `O=c1c2ccccc2[se]n1-c1ccccc1` [EBSELEN], with 1.5 µM.

In a further assay the target is T1, YTH domain-containing family protein 2 (Homo sapiens, UniProt Q9Y5A9).
T1 sequence (Q9Y5A9 whole entry): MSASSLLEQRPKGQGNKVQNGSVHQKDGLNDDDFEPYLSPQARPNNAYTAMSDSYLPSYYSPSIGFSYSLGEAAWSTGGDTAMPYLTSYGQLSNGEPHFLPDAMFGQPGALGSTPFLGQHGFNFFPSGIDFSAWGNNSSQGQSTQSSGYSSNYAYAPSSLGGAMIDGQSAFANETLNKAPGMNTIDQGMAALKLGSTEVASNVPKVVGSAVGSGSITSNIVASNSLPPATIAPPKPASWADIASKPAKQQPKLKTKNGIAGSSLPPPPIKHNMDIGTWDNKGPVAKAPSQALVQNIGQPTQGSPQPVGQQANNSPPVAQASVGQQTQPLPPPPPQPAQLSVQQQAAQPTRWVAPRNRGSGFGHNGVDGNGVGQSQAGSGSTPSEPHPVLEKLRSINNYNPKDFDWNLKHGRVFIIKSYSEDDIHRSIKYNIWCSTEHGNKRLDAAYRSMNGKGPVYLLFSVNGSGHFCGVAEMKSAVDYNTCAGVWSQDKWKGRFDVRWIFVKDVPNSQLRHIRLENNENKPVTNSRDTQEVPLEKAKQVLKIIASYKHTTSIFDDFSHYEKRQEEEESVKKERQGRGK
Nature of the assay: Inhibition of YTHDF2 YTH domain (unknown origin) (383 to 579 residues) expressed as Escherichia coli BL21 (DE3) Rosetta cells by HTFR based binding assay.
`CNc1ncnc2c(C)[nH]nc12` had an IC50 of 174 µM.
The same measure, in the same setting: then `O=c1cc(C2CC2)[nH]c(=O)[nH]1`, with 410 µM; and `Cn1c(=O)cc(C2CC2)[nH]c1=O`, with 161 µM.
The compound `CNc1ncnc2c(-c3ccccc3)[nH]nc12` registered an IC50 of 491 µM.

By EC50 is commonly meant the concentration that produces a half-maximal response. High values mean lower potency in that assay, low ones higher potency in that assay. For orientation: IC50 means the concentration that inhibits the measured activity by half. Low readings indicate higher potency, high ones lower potency.
